Data reported in ChEMBL document CHEMBL2163289, “The discovery of N-[5-(4-bromophenyl)-6-[2-[(5-bromo-2-pyrimidinyl)oxy]ethoxy]-4-pyrimidinyl]-N'-propylsulfamide (Macitentan), an orally active, potent dual endothelin receptor antagonist” (J Med Chem, 2012).
Calls of active or inactive are those of the source. The rule behind the calls is not given here. Where a SMILES comes first, the peptide text is derived from it. [ ]: non-standard residue; d: D form.

What was measured:
[1] = biological target: T1, Endothelin-1 receptor (Homo sapiens, UniProt P25101); test: Displacement of [I125]ET1 from recombinant ETA receptor expressed in CHO cells after 2 hrs by TopCount analysis; format: cell-based
T1 sequence (P25101 whole entry): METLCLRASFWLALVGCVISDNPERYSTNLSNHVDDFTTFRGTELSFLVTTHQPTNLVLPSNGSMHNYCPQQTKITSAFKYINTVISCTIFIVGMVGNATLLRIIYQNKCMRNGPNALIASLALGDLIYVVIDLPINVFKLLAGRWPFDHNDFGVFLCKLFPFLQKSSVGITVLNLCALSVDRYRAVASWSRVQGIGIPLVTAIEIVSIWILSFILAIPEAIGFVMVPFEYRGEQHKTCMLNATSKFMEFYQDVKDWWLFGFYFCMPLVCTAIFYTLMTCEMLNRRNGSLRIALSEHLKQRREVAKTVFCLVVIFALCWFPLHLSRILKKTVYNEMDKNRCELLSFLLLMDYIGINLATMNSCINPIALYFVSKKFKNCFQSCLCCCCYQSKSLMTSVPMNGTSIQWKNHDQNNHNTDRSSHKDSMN

[2] = system: Rattus norvegicus; test: Cmax in Wistar rat assessed as N-[5-(4-Bromophenyl)-6-[2-[(5-bromo-2-pyrimidinyl)oxy]ethoxy]-4-pyrimidinyl]-sulfamide level at 10 mg/kg, po at 6 hrs; format: ADME, organism-based; parameters: dose 10 mg/kg, route oral; conditions: in vivo
[3] = system: Rattus norvegicus; test: Antihypertensive activity in telemeterized hypertensive Dahl salt-sensitive rat assessed as reduction in mean arterial blood pressure at 3 mg/kg, po measured over 6 hrs; format: functional, Artery
[4] = system: Rattus norvegicus; test: Effect on heart rate in telemeterized hypertensive Dahl salt-sensitive rat at 3 mg/kg, po

SMILES	IC50 [1] [nM]	further results
COc1ccccc1Oc1c(NS(=O)(=O)c2ccc(C(C)(C)C)cc2)nc(-c2ncccn2)nc1OCCOc1ncccn1	4.3	–
COc1ccccc1Oc1c(NS(=O)(=O)NCc2ccccc2)nc(C2CC2)nc1OCCOc1ncc(Br)cn1	14	–
COc1ccccc1Oc1c(NS(=O)(=O)CCc2ccccc2)nc(-c2ncccn2)nc1OCCO	25.7	–
CCCCNS(=O)(=O)Nc1ncnc(OCCOc2ncc(Br)cn2)c1-c1ccc(Br)cc1	0.3	Cmax [2]: 4100 ng/mL; Fall in mean arterial blood pressure [3]: 16 mmHg
COc1cnc(OCCOc2nc(-c3ncccn3)nc(NS(=O)(=O)CCc3ccccc3)c2Oc2ccccc2OC)nc1	3.2	–
CCCS(=O)(=O)Nc1ncnc(OCCOc2ncc(Br)cn2)c1-c1ccc(Br)cc1	2.2	Fall in mean arterial blood pressure [3]: 25 mmHg
O=S(=O)(NCc1ccccc1)Nc1ncnc(OCCOc2ncc(Br)cn2)c1-c1ccc(Br)cc1	1.6	Activity [4]: inactive; Fall in mean arterial blood pressure [3]: 14 mmHg
COc1ccccc1Oc1c(NS(=O)(=O)CCc2ccccc2)nc(-c2ncccn2)nc1OCCOc1ncc(C(F)(F)F)cn1	3	–
COc1cccc(Oc2c(NS(=O)(=O)NCc3ccccc3)ncnc2OCCOc2ncc(Br)cn2)c1	1	Activity [4]: inactive; Fall in mean arterial blood pressure [3]: 10 mmHg
COc1ccccc1Oc1c(NS(=O)(=O)CCCc2ccccc2)nc(-c2ncccn2)nc1OCCOc1ncc(Br)cn1	6.7	–
CCCNS(=O)(=O)Nc1ncnc(OCCOc2ncc(Br)cn2)c1Oc1cc(OC)ccc1Cl	0.4	Fall in mean arterial blood pressure [3]: 21 mmHg
CN(Cc1ccccc1)S(=O)(=O)Nc1ncnc(OCCOc2ncc(Br)cn2)c1-c1ccc(Br)cc1	4.3	–
COc1ccccc1Oc1c(NS(=O)(=O)N(C)Cc2ccccc2)nc(-c2ncccn2)nc1OCCOc1ncc(Br)cn1	7	–
O=S(=O)(Nc1ncnc(OCCOc2ncc(Br)cn2)c1-c1ccc(Br)cc1)N1CCOCC1	2.8	–
COc1ccccc1Oc1c(NS(C)(=O)=O)nc(-c2ncccn2)nc1OCCOc1ncccn1	739	–
COc1ccccc1Oc1c(NS(C)(=O)=O)nc(-c2ncccn2)nc1OCCOc1ncc(Br)cn1	113	–
COc1ccc(Cl)c(Oc2c(NS(=O)(=O)NCc3ccccc3)ncnc2OCCOc2ncc(Br)cn2)c1	1.4	Activity [4]: inactive; Fall in mean arterial blood pressure [3]: 24 mmHg
COc1ccccc1Oc1c(NS(=O)(=O)Cc2ccccc2)nc(-c2ncccn2)nc1OCCOc1ncc(Br)cn1	73	–
COc1ccccc1Oc1c(NS(=O)(=O)CCc2ccccc2)nc(-c2ncccn2)nc1OCCOc1ncc(SC)cn1	1.1	–

SMILES	IC50 [1] [nM]	further results
CCCNS(=O)(=O)Nc1ncnc(OCCOc2ncc(Br)cn2)c1-c1ccc(Cl)cc1	1.2	–
COc1ccccc1Oc1c(NS(=O)(=O)CCc2ccccc2)nc(-c2ncccn2)nc1OCCOc1ncc(C)cn1	17.8	–
CCCNS(=O)(=O)Nc1nc(-c2ncccn2)nc(OCCOc2ncc(Br)cn2)c1Oc1ccccc1OC	3.8	–
O=S(=O)(NCc1ccccc1)Nc1ncnc(OCCOc2ncc(Br)cn2)c1-c1ccc(Cl)cc1	1.4	Activity [4]: inactive; Fall in mean arterial blood pressure [3]: 18 mmHg
COc1ccccc1Oc1c(NS(=O)(=O)CCc2ccccc2)nc(-c2ncccn2)nc1OCCOc1ncc(C2CC2)cn1	7.7	–
COc1ccccc1Oc1c(NS(=O)(=O)NCc2ccccc2)nc(-c2ncccn2)nc1OCCOc1ncc(Br)cn1	1.9	–
CCNS(=O)(=O)Nc1ncnc(OCCOc2ncc(Br)cn2)c1-c1ccc(Br)cc1	0.8	Fall in mean arterial blood pressure [3]: 20 mmHg
CCCCS(=O)(=O)Nc1ncnc(OCCOc2ncc(Br)cn2)c1-c1ccc(Br)cc1	1.1	Fall in mean arterial blood pressure [3]: 22 mmHg
CCS(=O)(=O)Nc1nc(-c2ncccn2)nc(OCCOc2ncc(Br)cn2)c1Oc1ccccc1OC	14	–
CCNS(=O)(=O)Nc1nc(-c2ncccn2)nc(OCCOc2ncc(Br)cn2)c1Oc1ccccc1OC	9.9	–
CCCS(=O)(=O)Nc1nc(-c2ncccn2)nc(OCCOc2ncc(Br)cn2)c1Oc1ccccc1OC	9.4	–
NS(=O)(=O)Nc1ncnc(OCCOc2ncc(Br)cn2)c1-c1ccc(Br)cc1 [APROCITENTAN]	3.4	–
CNS(=O)(=O)Nc1nc(-c2ncccn2)nc(OCCOc2ncc(Br)cn2)c1Oc1ccccc1OC	7.9	–
CC(C)c1ccc(-c2c(NS(=O)(=O)NCc3ccccc3)ncnc2OCCOc2ncc(Br)cn2)cc1	3.6	–
COc1ccccc1Oc1c(NS(=O)(=O)NCc2ccccc2)nc(N2CCOCC2)nc1OCCOc1ncc(Br)cn1	1.4	–
CCCNS(=O)(=O)Nc1ncnc(OCCOc2ncc(Br)cn2)c1Oc1cccc(OC)c1	1.9	Fall in mean arterial blood pressure [3]: 15 mmHg
COc1ccccc1Oc1c(NS(=O)(=O)N2CCOCC2)nc(-c2ncccn2)nc1OCCOc1ncc(Br)cn1	187	–
COc1ccccc1Oc1c(NS(=O)(=O)c2ccc(C(C)(C)C)cc2)nc(-c2ncccn2)nc1OCCOc1ncc(Br)cn1	1.5	–
COc1ccccc1Oc1c(NS(=O)(=O)NCc2ccccc2)ncnc1OCCOc1ncc(Br)cn1	6.9	–

SMILES	IC50 [1] [nM]	further results
COc1ccccc1Oc1c(NS(=O)(=O)c2ccccc2)nc(-c2ncccn2)nc1OCCOc1ncc(Br)cn1	10.4	–
COCCOc1nc(NS(=O)(=O)NCc2ccccc2)c(Oc2ccccc2OC)c(OCCOc2ncc(Br)cn2)n1	6.9	–
CNS(=O)(=O)Nc1ncnc(OCCOc2ncc(Br)cn2)c1-c1ccc(Br)cc1	1.7	Fall in mean arterial blood pressure [3]: 21 mmHg
CC(C)C[C@@H]1NC(=O)[C@@H](C(C)C)NC(=O)[C@@H]2CCCN2C(=O)[C@@H](CC(=O)O)NC(=O)[C@@H](Cc2c[nH]c3ccccc23)NC1=O [BQ-123] (cyclo(L[dW][dD]P[dV]))	20.5	–
COc1ccccc1Oc1c(NS(=O)(=O)CCc2ccccc2)nc(-c2ncccn2)nc1OCCOc1ncc(Br)cn1	2.2	–
COc1ccccc1Oc1c(NS(=O)(=O)NCc2ccccc2)nc(-c2ccncc2)nc1OCCOc1ncc(Br)cn1	3.4	–
CC[C@H](C)[C@H](NC(=O)[C@@H](NC(=O)[C@H](CC(=O)O)NC(=O)[C@H](CCC(N)=O)NC(=O)[C@H](Cc1cnc[nH]1)NC(=O)[C@@H]1CSSC[C@H](N)C(=O)N[C@@H]([C@@H](C)O)C(=O)N[C@H]2CSSC[C@H](NC(=O)[C@H](CCC(=O)O)NC(=O)[C@H](CCC(=O)O)NC(=O)[C@H](CC(=O)O)NC(=O)[C@H]([C@@H](C)O)NC(=O)[C@H](CCSC)NC(=O)[C@H](CC(=O)O)NC(=O)[C@H](CC(N)=O)NC2=O)C(=O)N[C@@H](CC(C)C)C(=O)N[C@@H](CC(N)=O)C(=O)N[C@@H](Cc2ccccc2)C(=O)N1)C(C)C)C(=O)N[C@@H](Cc1c[nH]c2ccccc12)C(=O)O [SARAFOTOXIN 6C]	> 100	–
COc1cc(OC)nc(OCCOc2nc(-c3ncccn3)nc(NS(=O)(=O)CCc3ccccc3)c2Oc2ccccc2OC)n1	4780	–
CCc1ccc(-c2c(NS(=O)(=O)NCc3ccccc3)ncnc2OCCOc2ncc(Br)cn2)cc1	2.3	–
CCCCNS(=O)(=O)Nc1nc(-c2ncccn2)nc(OCCOc2ncc(Br)cn2)c1Oc1ccccc1OC	1.7	–
O=S(=O)(NCc1ccccc1)Nc1ncnc(OCCOc2ncc(Br)cn2)c1-c1ccccc1	6.8	–
COc1ccccc1Oc1c(NS(C)(=O)=O)nc(-c2ncccn2)nc1OCCO	4530	–
COc1ccccc1Oc1c(NS(=O)(=O)CCc2ccccc2)nc(-c2ncccn2)nc1OCCOc1ncccn1	8	–
COc1ccccc1Oc1c(NS(=O)(=O)NCc2ccccc2)nc(-c2cnccn2)nc1OCCOc1ncc(Br)cn1	2.1	–
CCCCS(=O)(=O)Nc1nc(-c2ncccn2)nc(OCCOc2ncc(Br)cn2)c1Oc1ccccc1OC	4.3	–
COc1nc(NS(=O)(=O)NCc2ccccc2)c(Oc2ccccc2OC)c(OCCOc2ncc(Br)cn2)n1	40	–
Cc1ccc(-c2c(NS(=O)(=O)NCc3ccccc3)ncnc2OCCOc2ncc(Br)cn2)cc1	0.7	–
COc1ccccc1Oc1c(NS(=O)(=O)CCc2ccccc2)nc(-c2ncccn2)nc1OCCOc1ncc(Cl)cn1	2.8	–
